# Source: US20140309295A1, “ANTIEPILEPTIC, HYPOCHOLESTEROLEMIC AND NEUROPROTECTIVE COMPOUND” (NEURON BIOPHARMA, S.A., priority 2009, published 2014)
# Columns and labels:
# [1] = tested on: FVB/NHan mice inoculated with kainate (KA); test: Neuronal death in the hippocampus of mice caused by kainate (hematoxylin-eosin); type: in vivo; details: 50 mg/kg i.p., 7 days
# Protocol: All the animals included for the experimental process were 12-week old males of the FVB/NHan strain. The experiments were conducted strictly following the Guidance on the Operation of Animals (Scientific Procedures, Act. 1986). The animals had their respective quarantine period and were treated with maximum precaution to minimize possible contaminations for inoculations and handling. […]
# caspase 3/7 = test: Inhibition of camptothecin-induced activation of caspase 3/7 in SK-N-MC cells; type: cell-based, human; details: 50 μM CPT, 6 h
# Protocol: The assay was performed on human neuroblastoma SK-N-MC cells in culture from the American Type Culture Collection (ATCC), in all cases strict rules of sterility were followed and the manipulation was performed in class II biological safety cabinets following European standard EN 12469. The cells were maintained in the following culture medium: Minimum Essential Medium Eagle (MEM) supplemented with 1 mM sodium pyruvate, 2 mM L-glutamine, 0.1 mM non-essential amino acids, 0.05 mg/ml gentamicin and 10% fetal bovine serum. The induction of apoptosis on the cells in culture was performed by means of incubation with camptothecin (CPT), which triggers cell apoptosis activation. The apoptosis was determined by means of the measurement of the activation of effector caspases, caspase 3 or caspase 7, for which a kit for the fluorometric detection of active caspase 3/7 (Apo-ONE® Homogeneous Caspase-3/7, Promega) was used. The active caspase 3 or 7 of the cells cause the rupture of a substrate, which leads to fluorescence emission, which is read by means of a fluorometer. The effect of the pretreatment of compound NST0037 at 10 and 40 μM on the activation of caspase 3/7 caused by 50 μM of camptothecin (CPT) in the SK-N-MC cells was thus analyzed. These cells, not exceeding 15 passages, were seeded on 96-well plates treated for adherent cells with a cell concentration of 5×10^4 cells/well, 3 wells of the plate were seeded for each condition of the assay. After 24 hours of cell incubation at 37° C. and 5% CO2, the pretreatment with NST0037 at 10 and 40 μM was performed. […] On the following day, fluorescence was measured (499/521 nm, […]).
# zebrafish larvae = test: Acute toxicity assay in zebrafish larvae (24 hours); type: in vivo, Danio rerio; details: for Mortality (dead larvae/total): 1 day
# Protocol: To evaluate the biosafety of compound NST0037, its toxicological effects on the zebrafish larvae model were analyzed by means of determining the safety parameters of the OECD C15 protocol.
# The fertilized eggs were obtained by natural mating of the zebrafish (Danio rerio, AB strain). A total of 8-10 pairs were used for each cross and a total of 200-250 eggs were generated on average per pair. The eggs were collected immediately after spawning and were washed with dilution water (CaCl2.2H2O2 0.29 g/L, MgSO4.7H2O2 0.12 g/L, NaHCO3 0.065 g/L, KCl 0.006 g/L), the pH being adjusted to 7.8±0.2, in accordance with EC Regulation 440/2008, method C.1, and were deposited in a Petri dish.
# The embryos were developed normally until 96 hours post-fertilization in their growth medium. […] […]. Each experiment was performed in triplicate.
# The studies were conducted for 24 hours of treatment, thus performing an acute toxicity assay. […].
# After the time of exposure of the substances under study, the record of the mortality of the larvae was determined. […].
# […]. The percentage of healthy larvae was defined as the number of live larvae without symptoms of external physiopathological anomalies (morphological and/or behavioral), the latter being a parameter determining the biosafety of a substance under study and is complementary to the survival rates and to LD50. […].
# The anomalies recorded in the study are described below: • Thrombosis in the yolk sac: it is a clot inside a blood vessel, in this case of any vessel irrigating the yolk. • Cardiac thrombosis: occurs in a cardiac vessel. • Cardiac edema (or hydrops): accumulation of fluid in the intercellular tissue space and also in the cavities of the organism. In the case of the heart, it causes the accumulation of fluid in the pericardial sac.
smiles,measurement,setting,value
"CCC(CC)C(=O)O[C@H]1C[C@@H](C)C=C2C=C[C@H](C)[C@H](CC[C@@H]3C[C@@H](O)CC(=O)O3)[C@H]21 [NST0037, (1S,2S,6R,8S,8aR)-1,2,6,7,8,8a-hexahydro-3,7-dimethyl-8-[2-[(2R,4R)-tetrahydro-4-hydroxy-6-oxo-2H-pyran-2-yl]ethyl]-1-naphthalenyl-2-ethyl-butyrate]",neuronal death in hippocampal CA1 and CA2 regions,"[1]; NST0037+KA+NST0037 regimen, KA 25 mg/Kg",completely protected against neuronal death
same,neuronal death in hippocampal CA1 and CA2 regions,[1]; PBS+KA+NST0037 regimen (treatment after KA),qualitatively reduced neuronal death and damage
same,inhibition of caspase 3/7 with respect to camptothecin,caspase 3/7; pretreatment 10 μM NST0037,26%
same,inhibition of caspase 3/7 with respect to camptothecin,caspase 3/7; pretreatment 40 μM NST0037,33%
same,Mortality (dead larvae/total),zebrafish larvae; Dose 10 mg/Kg,0/30
same,Mortality (dead larvae/total),zebrafish larvae; Dose 30 mg/Kg,0/30
same,Mortality (dead larvae/total),zebrafish larvae; Dose 100 mg/Kg,0/30
same,Mortality (dead larvae/total),zebrafish larvae; Dose 300 mg/Kg,0/30
same,Mortality (dead larvae/total),zebrafish larvae; Dose 1000 mg/Kg,0/30
same,percentage of healthy larvae,"zebrafish larvae; highest study dose (1000 mg/Kg), 24 hours",67.9±3.3%
